In publication PMC9231362 (Viruses, 2022):

Target: T1, catL (cathepsin L; rh catL) (Homo sapiens, UniProt P07711)
T1 construct: gene CTSL; incubated on ice 15 min in assay buffer pH 6.0 before use
Assay: fluorogenic protease activity assay
Format: biochemical

T1 sequence (P07711 114-288): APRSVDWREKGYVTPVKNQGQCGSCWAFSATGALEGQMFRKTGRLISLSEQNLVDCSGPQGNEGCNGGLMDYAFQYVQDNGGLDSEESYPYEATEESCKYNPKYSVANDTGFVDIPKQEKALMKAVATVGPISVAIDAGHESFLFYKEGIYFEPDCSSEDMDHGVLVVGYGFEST
T1 sequence (P07711 292-333): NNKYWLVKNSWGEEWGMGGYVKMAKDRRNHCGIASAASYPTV

Structure (SMILES)	IC50 [µM]
C[C@@H]1[C@H](O)[C@@H](C)/C=C/C=C/CC/C=C/C=C/C=C/C=C/[C@H](O[C@@H]2O[C@H](C)[C@@H](O)[C@H](N)[C@@H]2O)C[C@@H]2O[C@](O)(C[C@@H](O)[C@H](O)CC[C@@H](O)C[C@@H](O)C[C@@H](O)CC(=O)O[C@H]1C)C[C@H](O)[C@H]2C(=O)O [Nystatin]	~2
CO[C@H]1/C=C/O[C@@]2(C)Oc3c(C)c(O)c4c(O)c(c(/C=N/N5CCN(C6CCCC6)CC5)c(O)c4c3C2=O)NC(=O)/C(C)=C\C=C\[C@H](C)[C@H](O)[C@@H](C)[C@@H](O)[C@@H](C)[C@H](OC(C)=O)[C@@H]1C [Rifapentine]	~30
